Source: patent US20240132431A1, “METHOD FOR ALKYLATING ACIDIC FUNCTIONAL GROUP” (Chugai Seiyaku Kabushiki Kaisha, priority 2021, published 2024)
One block for each compound: values may come before it.

Molecular target: T1, Bcl-2 protein (Recombinant Human Bcl-2 Protein) (Homo sapiens, UniProt P10415)
T1 construct: purchased Novus NBP2-34889
Experiment: Binding evaluation of mixture library compounds to Bcl-2 using AS-MS (affinity selection mass spectrometry)
Conditions: for ASMS ratio (%) n = 1 / ASMS ratio (%) n = 2: ASMS Ratio(%)=(A−C)/B×100; for ASMS ratio (%) n = 1: replicate n = 1; for ASMS ratio (%) n = 2: replicate n = 2
Method in brief: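 ASMS Ratio (%) was calculated as (A−C)/B×100, where A is the protein sample after SEC, B the protein-free sample without SEC and C the protein-free sample after SEC. Each compound was at […] in a 1200-member pool with 20 μM Bcl-2, incubated 1 h at 23° C.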

[1] = AS-MS on the mixture of 1200 library compounds
[2] = AS-MS, mixture of 1200 compounds, Bcl-2

T1 sequence (P10415 whole entry): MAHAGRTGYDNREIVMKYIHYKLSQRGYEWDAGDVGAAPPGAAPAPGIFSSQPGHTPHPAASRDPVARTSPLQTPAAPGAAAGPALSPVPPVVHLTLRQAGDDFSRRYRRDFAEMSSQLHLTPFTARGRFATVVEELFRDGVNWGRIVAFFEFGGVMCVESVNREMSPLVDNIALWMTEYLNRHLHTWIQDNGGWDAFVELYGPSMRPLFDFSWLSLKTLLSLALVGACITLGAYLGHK

Compound: CCOc1cccc(-c2cc(OC)c(CN3CCN(c4ccc(C(=O)Nc5ccc(OC)cc5)nn4)CC3)c(OC)c2)c1 [B1O085-01, 6-[4-[[4-(3-Ethoxyphenyl)-2,6-dimethoxyphenyl]methyl]piperazin-1-yl]-N-(4-methoxyphenyl)pyridazine-3-carboxamide]
ASMS ratio (%) n = 1 [1]: −1.1%
ASMS ratio (%) n = 2 [1]: −3.1%

Compound: CCOc1cncc(-c2ccc(CN3CCN(c4ccc(C(=O)NS(=O)(=O)CCC(F)(F)F)nn4)CC3)cc2F)c1 [B2N078-01, 6-[4-[[4-(5-Ethoxypyridin-3-yl)-3-fluorophenyl]methyl]piperazin-1-yl]-N-(3,3,3-trifluoropropylsulfonyl)pyridazine-3-carboxamide]
ASMS ratio (%) (n = 1): 0.0%
ASMS ratio (%) (n = 2): 0.0%

Compound: CCOc1cncc(-c2cc(CN3CCN(c4ccc(C(=O)N(CC)CC)nn4)CC3)cc(C(F)(F)F)c2)c1 [B4J088-01]
ASMS ratio (%) n = 1 (AS-MS, mixture library, Bcl-2): 0.0%
ASMS ratio (%) n = 2 (AS-MS, mixture library, Bcl-2): 0.0%

Compound: 6-[4-[[3-Ethoxy-5-(3-ethoxyphenyl)phenyl]methyl]piperazin-1-yl]-N-propylpyridazine-3-carboxamide [B1M010-01]
ASMS ratio (%) n = 1 [2]: 0.0%
ASMS ratio (%) n = 2 [2]: 0.0%

Compound: CCOc1cccc(-c2cc(C(=O)N3CCN(c4ccc(C(=O)NS(=O)(=O)c5ccc(NCCSc6ccccc6)c(C(F)(F)F)c5)nn4)CC3)cc(C(C)(C)C)c2)c1 [B2R015-01, 6-[4-[3-tert-Butyl-5-(3-ethoxyphenyl)benzoyl]piperazin-1-yl]-N-[4-(2-phenylsulfanylethylamino)-3-(trifluoromethyl)phenyl]sulfonylpyridazine-3-carboxamide]
ASMS ratio (%) (n = 1): 9.7%
ASMS ratio (%) (n = 2): 0.0%

Compound: CCOc1cncc(-c2ccc(C(C)N3CCN(c4ccc(C(=O)Nc5ccc(OC)cc5)cc4)CC3)c(F)c2)c1 (stereo not shown) [B1O100-01, 4-[4-[1-[4-(5-Ethoxypyridin-3-yl)-2-fluorophenyl]ethyl]piperazin-1-yl]-N-(4-methoxyphenyl)benzamide]
ASMS ratio (%) n = 1 [1]: −19.7%
ASMS ratio (%) n = 2 [1]: 11.1%

Compound: 6-[4-[3-tert-Butyl-5-(5-ethoxypyridin-3-yl)benzoyl]piperazin-1-yl]-N-propylpyridazine-3-carboxamide [B1M061-01]
ASMS ratio (%) n = 1 [2]: −3.3%
ASMS ratio (%) n = 2 [2]: −13.1%

Compound: CCOc1cccc(-c2ccccc2CCC(=O)N2CCN(c3ccc(C(=O)NCC(F)(F)F)nn3)CC2)c1 [B1K011-01, 6-[4-[3-[2-(3-Ethoxyphenyl)phenyl]propanoyl]piperazin-1-yl]-N-(2,2,2-trifluoroethyl)pyridazine-3-carboxamide]
ASMS ratio (%) n = 1 [2]: −0.1%
ASMS ratio (%) n = 2 [2]: 0.3%

Compound: CCOc1cncc(C#Cc2ccccc2CN2CCN(c3ccc(C(=O)NCC(F)(F)F)cc3)CC2)c1 [B1K070-01, 4-[4-[[2-[2-(5-Ethoxypyridin-3-yl)ethynyl]phenyl]methyl]piperazin-1-yl]-N-(2,2,2-trifluoroethyl)benzamide]
ASMS ratio (%) n = 1 [2]: 0.0%
ASMS ratio (%) n = 2 [2]: 0.0%

Compound: CCOc1cccc(C#Cc2cc(C(=O)N3CCN(c4ccc(C(=O)N(C)CC56CC7CC(CC(C7)C5)C6)cc4)CC3)cc(C(F)(F)F)c2)c1 [B3A041-01, N-(1-Adamantylmethyl)-4-[4-[3-[2-(3-ethoxyphenyl)ethynyl]-5-(trifluoromethyl)benzoyl]piperazin-1-yl]-N-methylbenzamide]
ASMS ratio (%) n = 2 [1]: 425.9%

Compound: CCOc1cncc(-c2ccc(C(=O)N3CCN(c4ccc(C(=O)N(CC)CC)cc4)CC3)c3ccccc23)c1 [B4J036-01, 4-[4-[4-(5-Ethoxypyridin-3-yl)naphthalene-1-carbonyl]piperazin-1-yl]-N,N-diethylbenzamide]
ASMS ratio (%) n = 1 [1]: −0.3%
ASMS ratio (%) n = 2 [1]: −1.6%

Compound: CCOc1cccc(-c2csc(C(=O)N3CCN(c4ccc(C(=O)Nc5ccc(OC)cc5)nn4)CC3)c2)c1 [B1O001-01, 6-[4-[4-(3-Ethoxyphenyl)thiophene-2-carbonyl]piperazin-1-yl]-N-(4-methoxyphenyl)pyridazine-3-carboxamide]
ASMS ratio (%) n = 1 [1]: −0.1%
ASMS ratio (%) n = 2 [1]: −3.1%

Compound: CCOc1cncc(-c2ccc(C(C)N3CCN(c4ccc(C(=O)NS(=O)(=O)c5ccc(NCCSc6ccccc6)c([N+](=O)[O-])c5)cc4)CC3)c(F)c2)c1 (stereo not shown) [B2Q100-01, 4-[4-[1-[4-(5-Ethoxypyridin-3-yl)-2-fluorophenyl]ethyl]piperazin-1-yl]-N-[3-nitro-4-(2-phenylsulfanylethylamino)phenyl]sulfonylbenzamide]
ASMS ratio (%) n = 1 (AS-MS, mixture library, Bcl-2): 0.0%
ASMS ratio (%) n = 2 (AS-MS, mixture library, Bcl-2): 10.7%

Compound: CCOc1cccc(-c2ccc(CN3CCN(c4ccc(C(=O)NS(=O)(=O)CC56CC7CC(CC(C7)C5)C6)cc4)CC3)cc2F)c1 [B2A051-01]
ASMS ratio (%) n = 1 (AS-MS, mixture library, Bcl-2): −0.3%
ASMS ratio (%) n = 2 (AS-MS, mixture library, Bcl-2): 3.6%

Compound: CCOc1cccc(-c2cc(OC)c(CN3CCN(c4ccc(C(=O)NS(=O)(=O)c5ccc(NCCSc6ccccc6)c([N+](=O)[O-])c5)cc4)CC3)c(OC)c2)c1 [B2Q059-01, 4-[4-[[4-(3-Ethoxyphenyl)-2,6-dimethoxyphenyl]methyl]piperazin-1-yl]-N-[3-nitro-4-(2-phenylsulfanylethylamino)phenyl]sulfonylbenzamide]
ASMS ratio (%) n = 1 (AS-MS, mixture library, Bcl-2): 9.8%
ASMS ratio (%) n = 2 (AS-MS, mixture library, Bcl-2): 7.0%

Compound: CCOc1cccc(-c2ccc(CN3CCN(c4ccc(C(=O)NS(=O)(=O)C(C)(C)C)cc4)CC3)c(CC)c2)c1 [B2L049-01, N-tert-Butylsulfonyl-4-[4-[[4-(3-ethoxyphenyl)-2-ethylphenyl]methyl]piperazin-1-yl]benzamide]
ASMS ratio (%) (n = 2): 0.0%

Second part, the compound after the results:

ASMS ratio (%) n = 1 [1]: 4.7%
ASMS ratio (%) n = 2 [1]: 0.8%
Compound: CCOc1cncc(-c2ccc(C(=O)N3CCN(c4ccc(C(=O)Nc5ccc(OC)cc5)nn4)CC3)cc2F)c1 [B1O006-01, 6-[4-[4-(5-Ethoxypyridin-3-yl)-3-fluorobenzoyl]piperazin-1-yl]-N-(4-methoxyphenyl)pyridazine-3-carboxamide]

ASMS ratio (%) (n = 1): 0.0%
ASMS ratio (%) (n = 2): −1.8%
Compound: CCOc1cccc(-c2cc(CN3CCN(c4ccc(C(=O)NS(=O)(=O)CCC(F)(F)F)cc4)CC3)cc(OC(C)C)c2)c1 [B2N057-01, 4-[4-[[3-(3-Ethoxyphenyl)-5-propan-2-yloxyphenyl]methyl]piperazin-1-yl]-N-(3,3,3-trifluoropropylsulfonyl)benzamide]

ASMS ratio (%) n = 1 [1]: 8.6%
ASMS ratio (%) n = 2 [1]: −0.5%
Compound: CCOc1cncc(C#Cc2cc(C(=O)N3CCN(c4ccc(C(=O)Nc5ccc(OC)cc5)nn4)CC3)cc(C(F)(F)F)c2)c1 [B1O020-01, 6-[4-[3-[2-(5-Ethoxypyridin-3-yl)ethynyl]-5-(trifluoromethyl)benzoyl]piperazin-1-yl]-N-(4-methoxyphenyl)pyridazine-3-carboxamide]

ASMS ratio (%) n = 1 (AS-MS, mixture library, Bcl-2): 0.0%
ASMS ratio (%) n = 2 (AS-MS, mixture library, Bcl-2): 0.0%
Compound: CCOc1cncc(-c2cc(CN3CCN(c4ccc(C(=O)N(CC)CC)nn4)CC3)cc(OCC)c2)c1 [B4J082-01, 6-[4-[[3-Ethoxy-5-(5-ethoxypyridin-3-yl)phenyl]methyl]piperazin-1-yl]-N,N-diethylpyridazine-3-carboxamide]

ASMS ratio (%) n = 1 [2]: −1.0%
ASMS ratio (%) n = 2 [2]: −11.0%
Compound: CCOc1cccc(-c2cc(CN3CCN(c4ccc(C(=O)NCC56CC7CC(CC(C7)C5)C6)cc4)CC3)cc(OC(F)(F)F)c2)c1 [B1A063-01, N-(1-Adamantylmethyl)-4-[4-[[3-(3-ethoxyphenyl)-5-(trifluoromethoxy)phenyl]methyl]piperazin-1-yl]benzamide]

ASMS ratio (%) n = 1 (AS-MS, mixture library, Bcl-2): 0.7%
ASMS ratio (%) n = 2 (AS-MS, mixture library, Bcl-2): 14.1%
Compound: CCOc1cccc(C#Cc2cc(C(=O)N3CCN(c4ccc(C(=O)NS(=O)(=O)c5ccc(NCCSc6ccccc6)c([N+](=O)[O-])c5)nn4)CC3)cc(C(F)(F)F)c2)c1 [B2Q019-01, 6-[4-[3-[2-(3-Ethoxyphenyl)ethynyl]-5-(trifluoromethyl)benzoyl]piperazin-1-yl]-N-[3-nitro-4-(2-phenylsulfanylethylamino)phenyl]sulfonylpyridazine-3-carboxamide]

ASMS ratio (%) n = 1 [1]: 0.0%
ASMS ratio (%) n = 2 [1]: 0.0%
Compound: CCOc1cncc(C#Cc2cncc(C(=O)N3CCN(c4ccc(C(=O)N(C)CC56CC7CC(CC(C7)C5)C6)nn4)CC3)c2)c1 [B3A010-01, N-(1-Adamantylmethyl)-6-[4-[5-[2-(5-ethoxypyridin-3-yl)ethynyl]pyridine-3-carbonyl]piperazin-1-yl]-N-methylpyridazine-3-carboxamide]

ASMS ratio (%) (n = 1): 3.4%
ASMS ratio (%) (n = 2): −9.2%
Compound: CCOc1cccc(-c2cc(CN3CCN(c4ccc(C(=O)NS(=O)(=O)c5ccc(NCCSc6ccccc6)c(C(F)(F)F)c5)nn4)CC3)cc(OC(F)(F)F)c2)c1 [B2R089-01]

ASMS ratio (%) n = 1 [2]: 0.1%
ASMS ratio (%) n = 2 [2]: −0.2%
Compound: CCOc1cccc(-c2ccc(C(=O)N3CCN(c4ccc(C(=O)NCC(F)(F)F)nn4)CC3)cc2C)c1 [B1K003-01, 6-[4-[4-(3-Ethoxyphenyl)-3-methylbenzoyl]piperazin-1-yl]-N-(2,2,2-trifluoroethyl)pyridazine-3-carboxamide]

ASMS ratio (%) n = 1 [2]: 2.6%
ASMS ratio (%) n = 2 [2]: −1.4%
Compound: CCOc1cncc(-c2csc(CN3CCN(c4ccc(C(=O)NCC(F)(F)F)cc4)CC3)c2)c1 [B1K068-01, 4-[4-[[4-(5-Ethoxypyridin-3-yl)thiophen-2-yl]methyl]piperazin-1-yl]-N-(2,2,2-trifluoroethyl)benzamide]

ASMS ratio (%) n = 1 [2]: 10.6%
ASMS ratio (%) n = 2 [2]: 10.8%
Compound: CCOc1cccc(-c2cc(OC)c(CN3CCN(c4ccc(C(=O)NCC56CC7CC(CC(C7)C5)C6)nn4)CC3)c(OC)c2)c1 [B1A085-01, N-(1-Adamantylmethyl)-6-[4-[[4-(3-ethoxyphenyl)-2,6-dimethoxyphenyl]methyl]piperazin-1-yl]pyridazine-3-carboxamide]
